These results are taken from patent publication US20220104493A1, “HERBICIDAL COMPOUNDS” (SYNGENTA CROP PROTECTION AG, priority 2019, published 2022).

SMILES strings stand for the structures. Where a name gives a salt, the structure may show the parent alone. Read-outs that look alike come from different tables or passages of the source.

Holding throughout (experiment): Post-emergence efficacy, Method A
Common to all, as to type: in vivo

For experiment [1], the system named is Euphorbia heterophylla (EPHHL). The note with it: read-out: Control of weed species after post-emergence application, EPHHL.
For a further experiment, the system named is Lolium perenne (LOLPE). The note with it: read-out: Control of weed species after post-emergence application, LOLPE.
Experiment [2] deals with Ipomoea hederacea (IPOHE). The note with it: read-out: Control of weed species after post-emergence application, IPOHE.
Experiment [3] relates to Echinochloa crus-galli (ECHCG). The note with it: read-out: Control of weed species after post-emergence application, ECHCG.
The subject of experiment [4] is Amaranthus palmeri (AMAPA). The note with it: read-out: Control of weed species after post-emergence application, AMAPA.
For the next experiment, the system named is Eleusine indica (ELEIN). The note with it: read-out: Control of weed species after post-emergence application, ELEIN.
A further experiment relates to Setaria faberi (SETFA). The note with it: read-out: Control of weed species after post-emergence application, SETFA.
The subject of experiment [5] is Digitaria sanguinalis (DIGSA). The note with it: read-out: Control of weed species after post-emergence application, DIGSA.
Experiment [6] relates to Chenopodium album (CHEAL). The note with it: read-out: Control of weed species after post-emergence application, CHEAL.
Setting [7] is: 500 g/Ha, 100=total damage to plant, 0=no damage, evaluated after 7 and 14 days.
Where [8] appears, read: 125 g/Ha, 100=total damage to plant, 0=no damage, evaluated after 7 and 14 days.

On to `Cn1nnc(-c2cc[n+](CC(=O)O)cc2)n1` [Compound A34], for which the pest or weed control at 500 g/ha in experiment [1] (setting [7]) came out at 0%; in the experiment on Lolium perenne (LOLPE) (setting [7]), 0%; in experiment [2] (setting [7]), 0%; in experiment [3] (setting [7]), 0%; in experiment [4] (setting [7]) it was 70%; with Eleusine indica (ELEIN) (setting [7]) it was 0%. In addition, the pest or weed control at 500 g/ha (in the experiment with Setaria faberi (SETFA) (setting [7]); in experiment [5] (setting [7]); in experiment [6] (setting [7])) was 0% each time.

`Cc1nnc(-c2cc[n+](CCCS(=O)(=O)[O-])cc2)o1` [Compound A36]: the pest or weed control at 500 g/ha worked out at 60% in experiment [1] (setting [7]); 0% in the experiment on Lolium perenne (LOLPE) (setting [7]); 30% in experiment [2] (setting [7]); 10% in experiment [3] (setting [7]); 70% in [4] (setting [7]); 10% with Eleusine indica (ELEIN) (setting [7]). Also, the pest or weed control at 500 g/ha in the experiment with Setaria faberi (SETFA) (setting [7]) is 10%; in [5] (setting [7]), 30%; in experiment [6] (setting [7]), 60%.

In the case of `O=S(=O)([O-])CC[n+]1ccc(-c2nc(C(F)(F)F)co2)cc1` [Compound A46], the pest or weed control at 500 g/ha in experiment [1] (setting [7]) amounted to 0%; in the experiment on Lolium perenne (LOLPE) (setting [7]) it was 0%; in experiment [2] (setting [7]), 0%; in experiment [3] (setting [7]), 0%; in [4] (setting [7]), 30%; with Eleusine indica (ELEIN) (setting [7]), 0%. Also, the pest or weed control at 500 g/ha (with Setaria faberi (SETFA) (setting [7]); in experiment [5] (setting [7]); in [6] (setting [7])) was 0% in each case.

For `CCOP(C)(=O)C[n+]1ccc(-c2ncns2)cc1` (stereo not drawn) [Compound A47, 5-[1-[[ethoxy(methyl)phosphoryl]methyl]pyridin-1-ium-4-yl]-1,2,4-thiadiazole trifluoromethanesulfonate], the pest or weed control at 500 g/ha in experiment [1] was 10%; with Lolium perenne (LOLPE) it was 0%; in experiment [2], 10%; in [3], 10%; in experiment [4], 60%; in the experiment with Eleusine indica (ELEIN), 10%. For the same compound, the results for the pest or weed control at 500 g/ha (in the experiment on Setaria faberi (SETFA); in experiment [5]; in experiment [6]) were 10%, 10% and 60%, respectively.

As for `O=C(O)CC[n+]1ccc(-c2nc(C(F)(F)F)ns2)cc1` [Compound A48, 3-[4-[3-(trifluoromethyl)-1,2,4-thiadiazol-5-yl]pyridin-1-ium-1-yl]propanoic acid acetate], the pest or weed control at 125 g/ha in experiment [1] (setting [8]) stood at 30%; in the experiment on Lolium perenne (LOLPE) (setting [8]), 10%; in [2] (setting [8]) it was 0%; in [3] (setting [8]) it was 0%; in [4] (setting [8]) it was 90%; in the experiment with Eleusine indica (ELEIN) (setting [8]), 0%. The pest or weed control at 125 g/ha was 20% with Setaria faberi (SETFA) (setting [8]), 0% in experiment [5] (setting [8]) and 10% in [6] (setting [8]).

As for `O=C(O)C[n+]1ccc(-c2csnn2)cc1` [Compound A53], the pest or weed control at 500 g/ha in experiment [1] (setting [7]) worked out at 20%; in the experiment on Lolium perenne (LOLPE) (setting [7]), 0%; in [2] (setting [7]) it was 20%; in experiment [3] (setting [7]), 10%; in experiment [4] (setting [7]) it was 10%; in the experiment on Eleusine indica (ELEIN) (setting [7]), 0%. Moreover, the figures for the pest or weed control at 500 g/ha (in the experiment with Setaria faberi (SETFA) (setting [7]); in experiment [5] (setting [7]); in [6] (setting [7])) were 10%, 0% and 10%, respectively.

In the case of `Cn1nnnc1-c1cc[n+](CS(=O)(=O)[O-])cc1` [Compound A57], the pest or weed control at 500 g/ha amounted to 20% in [1] (setting [7]); 0% with Lolium perenne (LOLPE) (setting [7]); 0% in experiment [2] (setting [7]); 60% in [3] (setting [7]); 100% in [4] (setting [7]); 20% in the experiment with Eleusine indica (ELEIN) (setting [7]). Further, the pest or weed control at 500 g/ha in the experiment on Setaria faberi (SETFA) (setting [7]) worked out at 0%; in [5] (setting [7]), 30%; in experiment [6] (setting [7]), 80%.

Consider `O=S(=O)([O-])OCC[n+]1ccc(-c2nnco2)cc1` [Compound A64], for which the pest or weed control at 500 g/ha in experiment [1] (setting [7]) was 30%; in the experiment on Lolium perenne (LOLPE) (setting [7]), 10%; in experiment [2] (setting [7]) it was 20%; in [3] (setting [7]), 50%; in [4] (setting [7]), 50%; in the experiment on Eleusine indica (ELEIN) (setting [7]), 20%. For the same compound, the pest or weed control at 500 g/ha in the experiment on Setaria faberi (SETFA) (setting [7]) stood at 20%; in [5] (setting [7]), 30%; in [6] (setting [7]), 30%.

As to `O=S(=O)([O-])OCC[n+]1ccc(-c2csnn2)cc1` [Compound A65, 2-[4-(thiadiazol-4-yl)pyridin-1-ium-1-yl]ethyl sulfate], the pest or weed control at 500 g/ha in [1] (setting [7]) was found to be 20%; with Lolium perenne (LOLPE) (setting [7]), 10%; in experiment [2] (setting [7]), 20%; in experiment [3] (setting [7]), 20%; in experiment [4] (setting [7]), 30%; in the experiment on Eleusine indica (ELEIN) (setting [7]), 20%. The pest or weed control at 500 g/ha amounted to 10% in the experiment on Setaria faberi (SETFA) (setting [7]), 30% in [5] (setting [7]) and 20% in experiment [6] (setting [7]).

With `OCC[n+]1ccc(-c2nnc(-c3ccccc3)o2)cc1` [Compound A69, 2-[4-(5-phenyl-1,3,4-oxadiazol-2-yl)pyridin-1-ium-1-yl]ethanol 2,2,2-trifluoroacetate], the pest or weed control at 500 g/ha in experiment [1] (setting [7]) stood at 20%; with Lolium perenne (LOLPE) (setting [7]), 10%; in experiment [2] (setting [7]), 20%; in experiment [3] (setting [7]), 20%; in experiment [4] (setting [7]) it was 20%; with Eleusine indica (ELEIN) (setting [7]), 30%. Also, the pest or weed control at 500 g/ha in the experiment with Setaria faberi (SETFA) (setting [7]) is 10%; in experiment [5] (setting [7]), 10%; in experiment [6] (setting [7]), 30%.

On to `Cc1nc(-c2cc[n+](CCCS(=O)(=O)[O-])cc2)no1` [Compound A71], for which the pest or weed control at 500 g/ha in experiment [1] (setting [7]) was determined as 40%; in the experiment on Lolium perenne (LOLPE) (setting [7]) it was 0%; in experiment [2] (setting [7]), 30%; in experiment [3] (setting [7]), 20%; in experiment [4] (setting [7]) it was 20%; in the experiment on Eleusine indica (ELEIN) (setting [7]) it was 20%. Further, the values for the pest or weed control at 500 g/ha (in the experiment on Setaria faberi (SETFA) (setting [7]); in experiment [5] (setting [7]); in experiment [6] (setting [7])) were 10%, 30% and 50%, respectively.

Turning to `Cn1nccc1-c1cc[n+](CCOS(=O)(=O)[O-])cc1` [Compound A74], the pest or weed control at 500 g/ha in experiment [1] (setting [7]) amounted to 20%; in the experiment on Lolium perenne (LOLPE) (setting [7]), 10%; in experiment [2] (setting [7]), 10%; in experiment [3] (setting [7]), 20%; in experiment [4] (setting [7]) it was 10%; in the experiment on Eleusine indica (ELEIN) (setting [7]) it was 20%. Besides, the pest or weed control at 500 g/ha was 20% in the experiment on Setaria faberi (SETFA) (setting [7]), 30% in [5] (setting [7]) and 40% in [6] (setting [7]).
